ChEMBL document CHEMBL1201862, “PubChem BioAssay data set” (2004)
Calls of active or inactive are those of the source.

How the values were obtained:
Cytochrome P450 1A2 = target: T1, Cytochrome P450 1A2 (Homo sapiens, UniProt P05177);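 further: PubChem cytochrome P450 panel assay, CYP1A2 panel member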
T1 sequence (P05177 whole entry): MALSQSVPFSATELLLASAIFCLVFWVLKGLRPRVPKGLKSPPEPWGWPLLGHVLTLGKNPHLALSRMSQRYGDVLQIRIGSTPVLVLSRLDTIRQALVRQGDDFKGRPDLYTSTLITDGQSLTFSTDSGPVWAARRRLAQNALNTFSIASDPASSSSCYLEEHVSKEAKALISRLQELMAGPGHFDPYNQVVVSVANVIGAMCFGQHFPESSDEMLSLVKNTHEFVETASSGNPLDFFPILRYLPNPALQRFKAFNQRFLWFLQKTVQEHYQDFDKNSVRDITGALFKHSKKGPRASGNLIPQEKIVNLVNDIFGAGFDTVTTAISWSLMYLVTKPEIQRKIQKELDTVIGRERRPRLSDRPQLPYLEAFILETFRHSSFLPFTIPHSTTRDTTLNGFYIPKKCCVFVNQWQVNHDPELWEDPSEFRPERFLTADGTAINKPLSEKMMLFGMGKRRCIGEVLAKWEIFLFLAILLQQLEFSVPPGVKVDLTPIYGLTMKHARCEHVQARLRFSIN

[1] = target: T2, Corticotropin-releasing factor receptor 2/Corticotropin-releasing factor-binding protein (Homo sapiens, UniProt P24387+Q13324); assay: Dose Response confirmation of uHTS hits for small molecule antagonists of the CRF-binding protein and CRF-R2 receptor complex.; type: functional; details: read-out: IC50_Mean
T2 sequence (Q13324 whole entry): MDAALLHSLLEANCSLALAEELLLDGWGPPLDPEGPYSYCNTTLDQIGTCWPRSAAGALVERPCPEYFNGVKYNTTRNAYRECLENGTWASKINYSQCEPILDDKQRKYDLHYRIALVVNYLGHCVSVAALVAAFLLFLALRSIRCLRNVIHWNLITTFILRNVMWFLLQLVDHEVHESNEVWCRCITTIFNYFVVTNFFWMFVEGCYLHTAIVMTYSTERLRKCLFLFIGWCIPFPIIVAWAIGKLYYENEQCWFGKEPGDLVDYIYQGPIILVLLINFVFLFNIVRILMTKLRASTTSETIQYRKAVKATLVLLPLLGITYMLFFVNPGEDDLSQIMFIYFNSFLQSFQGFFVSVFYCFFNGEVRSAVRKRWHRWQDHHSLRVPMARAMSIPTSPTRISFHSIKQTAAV
T2 sequence (P24387 whole entry): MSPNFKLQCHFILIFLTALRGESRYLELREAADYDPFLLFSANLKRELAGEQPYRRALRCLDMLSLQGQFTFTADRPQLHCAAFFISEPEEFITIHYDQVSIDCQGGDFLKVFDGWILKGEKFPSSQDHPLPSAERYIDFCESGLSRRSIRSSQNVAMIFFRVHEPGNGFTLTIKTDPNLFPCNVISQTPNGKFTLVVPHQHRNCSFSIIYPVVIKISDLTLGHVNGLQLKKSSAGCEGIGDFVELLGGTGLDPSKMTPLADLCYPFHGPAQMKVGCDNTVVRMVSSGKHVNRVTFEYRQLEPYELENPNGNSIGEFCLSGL

[2] = target: T2, Corticotropin-releasing factor receptor 2/Corticotropin-releasing factor-binding protein; assay: activators of CRF receptor 2 with binding protein – uHTS hits, confirmation (AID 602473); type: functional; details: read-out: EC50_Mean
Protein skinhead-1 = target: T3, Protein skinhead-1 (Caenorhabditis elegans, UniProt P34707); type: functional
T3 sequence (P34707 whole entry): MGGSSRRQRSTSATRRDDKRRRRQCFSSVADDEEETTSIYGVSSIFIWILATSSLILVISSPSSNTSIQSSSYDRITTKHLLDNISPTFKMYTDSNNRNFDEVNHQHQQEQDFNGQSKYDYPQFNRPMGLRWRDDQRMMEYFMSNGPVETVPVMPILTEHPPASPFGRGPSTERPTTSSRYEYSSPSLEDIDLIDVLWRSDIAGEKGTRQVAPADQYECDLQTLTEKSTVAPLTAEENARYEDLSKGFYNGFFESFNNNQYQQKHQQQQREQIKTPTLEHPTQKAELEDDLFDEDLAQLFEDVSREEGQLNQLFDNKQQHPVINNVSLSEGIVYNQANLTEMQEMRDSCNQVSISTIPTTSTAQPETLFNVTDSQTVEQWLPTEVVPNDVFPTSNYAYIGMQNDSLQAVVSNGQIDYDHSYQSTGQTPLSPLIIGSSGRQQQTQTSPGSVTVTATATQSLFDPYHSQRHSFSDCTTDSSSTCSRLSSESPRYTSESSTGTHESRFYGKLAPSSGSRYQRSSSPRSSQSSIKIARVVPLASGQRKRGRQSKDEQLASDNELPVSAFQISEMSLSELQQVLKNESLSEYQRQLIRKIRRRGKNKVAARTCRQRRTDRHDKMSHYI

[3] = target: T4, Heat shock factor protein 1 (Mus musculus, UniProt P38532); assay: HSF1 potentiators in luciferase reporter cells, confirmation, cell-based, NIH3T3, luminescence, dose retest (AID 435004); type: functional;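 further: stress induced by proteasome inhibitor MG132 added 30 min after compound; luciferase reporter driven by HSF1 response element in NIH3T3 cells; actives raise luminescence as potentiators of the MG132 stress response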
T4 sequence (P38532 whole entry): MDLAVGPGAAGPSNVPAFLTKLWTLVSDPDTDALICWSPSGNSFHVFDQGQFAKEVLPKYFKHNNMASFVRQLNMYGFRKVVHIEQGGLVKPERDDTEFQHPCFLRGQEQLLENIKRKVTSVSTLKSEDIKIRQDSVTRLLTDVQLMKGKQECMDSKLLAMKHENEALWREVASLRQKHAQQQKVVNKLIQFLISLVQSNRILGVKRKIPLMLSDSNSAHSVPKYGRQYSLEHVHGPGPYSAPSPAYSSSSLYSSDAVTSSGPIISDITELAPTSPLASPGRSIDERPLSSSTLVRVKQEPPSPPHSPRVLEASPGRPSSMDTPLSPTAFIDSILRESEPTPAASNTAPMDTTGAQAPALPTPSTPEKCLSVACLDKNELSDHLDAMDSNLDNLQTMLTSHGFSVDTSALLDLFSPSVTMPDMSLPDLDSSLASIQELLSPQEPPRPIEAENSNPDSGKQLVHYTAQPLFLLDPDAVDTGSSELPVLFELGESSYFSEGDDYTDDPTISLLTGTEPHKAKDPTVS

Cytochrome P450 2C9 = Cytochrome P450 2C9 (Homo sapiens, UniProt P11712)
[4] = target: T5, Rac GTPase-activating protein 1 (Homo sapiens, UniProt Q9H0H5); assay: MgcRacGAP GTPase-activating activity inhibitors, confirmation, biochemical, ADP Hunter fluorescence, primary and confirmatory (AID 624330); type: functional
T5 sequence (Q9H0H5 whole entry): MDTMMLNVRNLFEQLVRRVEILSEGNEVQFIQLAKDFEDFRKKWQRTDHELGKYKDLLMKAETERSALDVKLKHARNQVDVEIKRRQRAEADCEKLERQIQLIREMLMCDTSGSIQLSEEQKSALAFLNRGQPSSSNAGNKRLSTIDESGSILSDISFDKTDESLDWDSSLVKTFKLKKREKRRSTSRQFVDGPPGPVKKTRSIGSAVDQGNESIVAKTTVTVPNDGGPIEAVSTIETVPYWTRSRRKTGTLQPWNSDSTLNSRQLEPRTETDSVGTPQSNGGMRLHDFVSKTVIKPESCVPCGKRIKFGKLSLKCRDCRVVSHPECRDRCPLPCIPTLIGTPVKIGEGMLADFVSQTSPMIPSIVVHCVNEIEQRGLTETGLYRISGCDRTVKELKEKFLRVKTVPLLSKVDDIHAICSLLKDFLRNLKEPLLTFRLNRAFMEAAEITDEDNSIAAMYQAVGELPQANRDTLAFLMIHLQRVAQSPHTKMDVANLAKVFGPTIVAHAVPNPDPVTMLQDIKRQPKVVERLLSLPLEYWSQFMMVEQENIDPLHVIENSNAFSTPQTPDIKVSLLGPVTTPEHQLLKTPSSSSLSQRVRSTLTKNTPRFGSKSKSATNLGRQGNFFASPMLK

[5] = Luminescence Cell-Based Dose Response HTS to Identify Activators of Luciferase Translation or Activity in H4 […] Cells. [Related pubchem assays: 1829 (Project Summary), 1814 (Primary HTS)]; type: functional
H4 = assay: Luminescence Cell-Based Dose Response HTS to Identify Activators of 5'UTR Stem-Loop Driven Prion Protein mRNA Translation in H4 Neuroglioblastoma Cells. [Related pubchem assays: 1829 (Project Summary), 1814 (Primary HTS)]; type: functional; details: Homo sapiens
[6] = inhibitors of intracellular T. cruzi replication, confirmation, NIH3T3 host cells, beta-gal luminescence (AID 2044); type: functional, cell-based;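 further: intracellular parasites grown in NIH/3T3 mouse fibroblasts as host cells; luminescent beta-galactosidase reporter signal from transgenic T. cruzi replicating inside host cells; inhibitors lower the luminescence signal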
[7] = cytotoxicity toward NIH3T3 fibroblasts, dose response, counter-screen, cell-based, ATP luminescence, mouse fibroblasts (AID 2010); type: functional;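 further: cells exposed to compound for about 90 hours before reading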

Sequence of Cytochrome P450 2C9 (P11712 whole entry): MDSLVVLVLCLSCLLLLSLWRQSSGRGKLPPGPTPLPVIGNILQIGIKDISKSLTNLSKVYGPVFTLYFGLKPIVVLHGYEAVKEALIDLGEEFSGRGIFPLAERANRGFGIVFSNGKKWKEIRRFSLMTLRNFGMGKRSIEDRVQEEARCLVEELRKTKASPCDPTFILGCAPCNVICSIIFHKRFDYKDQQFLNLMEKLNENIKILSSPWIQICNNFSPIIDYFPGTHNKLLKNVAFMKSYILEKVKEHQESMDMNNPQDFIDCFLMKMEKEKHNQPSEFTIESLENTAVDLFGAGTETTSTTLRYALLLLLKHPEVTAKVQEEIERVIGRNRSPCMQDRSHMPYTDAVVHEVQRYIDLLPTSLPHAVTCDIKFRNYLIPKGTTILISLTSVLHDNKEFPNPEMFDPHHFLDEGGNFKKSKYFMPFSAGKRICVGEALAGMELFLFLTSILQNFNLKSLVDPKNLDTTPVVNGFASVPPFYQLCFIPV

## CCCNC(=N)NCCC[C@H](N)C(=O)O
Cytochrome P450 1A2
  AC50: 31.6 µM (inconclusive)

## CCc1nc(NCCC(C)C)c(C#N)c2c1CCCC2
[1]
  IC50: > 47.1 µM (inactive)
[2]
  EC50: > 53 µM (inactive)
Protein skinhead-1
  IC50: > 100 µM (inactive)

## Clc1ccc(-c2nnc(-c3ccccc3)o2)cn1
Protein skinhead-1
  IC50: 39.8 µM (active)

## COc1ccc(/C=C/C(=O)N(C(C)C)C(C)C)cc1Br
[3]
  EC50: 200 µM (active)

## O=C1/C(=C\c2cccs2)SC(=S)N1C1CCS(=O)(=O)C1 (centres undefined)
Protein skinhead-1
  IC50: > 100 µM (inactive)

## CCOC(=O)c1c(NC(=O)Cn2nc([N+](=O)[O-])c(Br)c2C)sc2c1CCC(C)C2 (centres undefined)
Cytochrome P450 1A2
  AC50: 2.82 µM (inconclusive)
Cytochrome P450 2C9
  AC50: 3.55 µM (inconclusive)

## COc1ccc(C(=O)N2CCC3(CC2)CN(C(=O)Nc2ccccc2)C3)cc1
Cytochrome P450 1A2
  AC50: 25.1 µM (inconclusive)

## O=C(C1CCN(S(=O)(=O)c2cccc3nsnc23)CC1)N1CCCc2ccccc21
Cytochrome P450 1A2
  AC50: 10 µM (inconclusive)
Cytochrome P450 2C9
  AC50: 39.8 µM (inconclusive)

## CN(C)c1ccc(C(CNC(=O)c2ccccc2)c2c[nH]c3ccccc23)cc1 (centres undefined)
[3]
  EC50: > 260 µM (inactive)

## CC(NC(=O)/C=C/c1ccco1)c1nc2ccccc2n1Cc1cccc(Cl)c1 (centres undefined)
[3]
  EC50: > 260 µM (inactive)

## c1ccc(N2CCN(c3cnc4ccccc4n3)CC2)cc1
Protein skinhead-1
  IC50: 76.2 µM (inactive)

## COc1ccc(CN2CCN(Cc3ccccc3OC)CC2)cc1
[4]
  IC50: 74.7 µM (active)

## c1cc2c(cc1CNc1ccc(N3CCOCC3)cc1)OCO2
[4]
  IC50: 6.57 µM (active)

## CCN(CC)c1ccc(N2C(=O)/C(=C/c3cccnc3)SC2=S)cc1
Cytochrome P450 1A2
  AC50: 6.31 µM (inconclusive)

## CC(=O)N1CSCC1C(=O)NNS(=O)(=O)c1cccc(C(F)(F)F)c1 (centres undefined)
[3]
  EC50: > 260 µM (inactive)

## Cc1ccccc1OCc1nnc2c3cnn(C)c3ncn12
[5]
  EC50: 16.8 µM (active)
H4
  EC50: 38.8 µM (active)

## COC(=O)c1[nH]c2ccccc2c1NC(=O)C(C)N1CCOCC1 (centres undefined)
Protein skinhead-1
  IC50: > 100 µM (inactive)

## CN(C)c1ccc(/C=C2/C(=O)NC(=O)N(Cc3ccco3)C2=O)cc1
[4]
  IC50: 142 µM (active)

## COc1ccc(Nc2oc(-c3ccc(F)cc3)nc2C#N)cc1
[5]
  EC50: 15.1 µM (active)
H4
  EC50: > 120 µM (not active)

## CSc1ccc(S(=O)(=O)N2CCC(C(=O)Nc3ccccc3C(F)(F)F)CC2)cc1
Protein skinhead-1
  IC50: > 100 µM (inactive)

## CCn1cc(C(=O)OCC(=O)NCc2ccc3c(c2)OCO3)c(=O)c2ccc(C)nc21
Protein skinhead-1
  IC50: > 100 µM (inactive)

## Cc1cc(C)n(-c2nc3ccccc3n3cnnc23)n1
Protein skinhead-1
  IC50: > 100 µM (inactive)

## O=C(O)C[C@@H](C(=O)O)c1ccccc1[N+](=O)[O-]
Cytochrome P450 1A2
  AC50: 0.794 µM (inconclusive)

## Fc1ccc(-c2cnn3c(-c4ccncc4)ccnc23)cc1
Protein skinhead-1
  IC50: > 100 µM (inactive)

## COc1cc(-c2cn(S(=O)(=O)c3cccc4nsnc34)nc2N)cc(OC)c1OC
[3]
  EC50: > 260 µM (inactive)

## CC1CCCC(N2CCN(C(=O)c3ccc([N+](=O)[O-])cc3)CC2)C1 (centres undefined)
[4]
  IC50: 167 µM (active)

## COc1ccc(C(=O)N2CCC[C@@]3(CCN(c4cccc(-c5ccccc5)c4)C3)C2)cc1
Cytochrome P450 1A2
  AC50: 12.6 µM (inconclusive)

## O=C(Nc1ccccc1C(=O)N1CCCC1)c1ncoc1-c1cccc(Cl)c1
[3]
  EC50: > 260 µM (inactive)

## O=C(CN1CCN(S(=O)(=O)N2CCCCC2)CC1)Nc1cc(Cl)cc(Cl)c1
Protein skinhead-1
  IC50: > 100 µM (inactive)

## COc1ccc(NC(=O)CSc2nnc(C3CC3)n2N)cc1
Cytochrome P450 1A2
  AC50: 39.8 µM (inconclusive)
Cytochrome P450 2C9
  AC50: 28.2 µM (inconclusive)

## N#C/C(=C(\O)C(F)(F)F)c1nnc2n1CCCCC2
[3]
  EC50: > 260 µM (inactive)

## CCN(CC)c1ccc(/C=N/NC(=O)OC)c(O)c1
[4]
  IC50: 66 µM (active)

## COc1cc(C=C2CN(C)C(=O)C2=O)ccc1O
[4]
  IC50: 19.6 µM (active)

## CO/C(O)=C1/C(C)=NC2=C(C(=O)CC(C)(C)C2)C1c1cn(Cc2ccc(Br)cc2)nc1-c1ccccc1 (centres undefined)
[3]
  EC50: > 260 µM (inactive)

## O=C(N/N=C/c1ccc(O)c2ccccc12)c1cccnc1
[4]
  IC50: 127 µM (active)

## COc1ccc(/C(C)=N/NC(=S)NCc2ccco2)cc1
[3]
  EC50: > 260 µM (inactive)

## CCOC(=O)C1=C(Nc2ccccc2)CC(C)(O)C(C(=O)OCC)C1c1ccc(Cl)cc1 (centres undefined)
Protein skinhead-1
  IC50: > 100 µM (inactive)

## CSc1ccc2c(c1)N(CCCN(C)C)c1ccccc1S2
Cytochrome P450 1A2
  AC50: 1.26 µM (inconclusive)

## N#C/C(=C\c1ccc(Sc2ccccc2)o1)c1nc2ccccc2[nH]1
[5]
  EC50: 0.561 µM (active)
H4
  EC50: 23 µM (active)
[6]
  EC50: 1.42 µM (active)
[7]
  EC50: > 60 µM (inconclusive)
